In US8197860B2, “Method for enhancing nutrient absorption with astragalosides” (Nuliv Holding Inc., priority 2005, dated 2012):

Tests used:
Type in all cases: cell-based, human
Caco2 cells [1] = assay: Glucose uptake assay; parameters: key to * (regulatory effect on glucose uptake): ↑: the arrows that point up represent the enhancing effect on the glucose uptake; settings: for Regulatory effects on the glucose uptake of the Caco2 cells: Table 2 summary; for Uptake rate (glucose): 48 hours, 25 mM glucose
Procedure: (§1) To evaluate the effect of the isolated astragaloside compound on the uptake of nutrient substances across the intestinal lumen, Caco-2 cells were grown on permeable filter as an experimental model. Caco2 cells originate from human colonic adenocarcinoma and spontaneously differentiate into an enterocyte-like phenotype after two weeks. The Caco-2 cell line, derived from a human colorectal carcinoma, has been used as an in vitro model system for studying drug absorption in gastrointestinal tract. These cells form monolayers with well-developed tight-junctions, and have been evaluated in details as an in vitro model to study both transcellular transport of nutrients and drugs in intestinal lumen.
(§2) Caco-2 cells were obtained from the ATCC (American Type Culture Collection). The cells were maintained in Dulbecco's modified Eagle medium (DMEM) containing 4.5 g/L glucose and 25 mM Hepes, supplemented with 10% fetal calf serum, 100 U/mL penicillin G and […]. The medium was changed every second day. The cells were routinely checked for Mycoplasma in monthly intervals. Caco-2 cells were cultured on semi-permeable membranes to differentiate into a highly functionalized epithelial barrier with remarkable morphological and biochemical similarity to the small intestinal columnar epithelium. The Caco-2 cell monolayers could therefore be used to study the membrane transport properties of many compounds. To trypsinize the cells, the culture dish was washed once with phosphate-buffered saline (PBS) followed by adding trypsine-EDTA for 10 minutes. The trypsinized cells were separated and filtered into single cells using a 35-μm strainer cap (Falcon 2235) before being seeded for further experiments.
(§3) Caco-2 cells (5×10^4) were seeded in a 48-well plate and maintained in culture medium (DMEM with 10% FBS, 1% nonessential amino acids, L-glutamine, penicillin G (100 U/mL), streptomycin (10 μg/mL), and amphotericin B (2.5 μg/mL) in a 37° C. incubator for 10 days for the cells to differentiate. The culture medium was changed once every two days. The cells were then washed with PBS before replenishing with the culture medium containing 5% FBS and various astragalosides at the indicated concentrations (0.01, 0.1 and 1 μM) for 48 hours. The Caco2 cells were washed out of remaining glucose with PBS and replaced in the glucose buffer (80 mM NaCl, 100 mM mannitol, 20 mM Tris-HCl, pH 7.4, 3 mM K2HPO4, 1 mM CaCl2, 1 mg/mL BSA) for 1 hour. Glucose uptake was initiated by replacing the glucose buffer with 0.2 ml of glucose buffer containing 2 μCi/mL of ^14C-glucose and unlabeled cold glucose to give a final glucose concentration of 25 mM. Glucose uptake was stopped by removing the glucose buffer and washing with PBS at designated time intervals. The cells were lysed in 0.2 mL of 0.2 N NaOH, and 20 μL of the cell lysate were transferred to the filter-bottomed UniFilter plates (Perkin-Elmer, Wellesley, Mass., USA) and dried in a vacuum oven at 37° C. The bottom of the UniFilter plate was sealed and 25 μL of the counting solution were added into each well. Adhesive plate sealers were used in place of the lids and radioactivity of each sample was counted using the microplate liquid scintillation counter (TopCount, Packard NXT, Packard BioScience Company, Meriden, Conn., USA). The amount of glucose accumulated in the cells was calculated and normalized to protein concentration, and uptake rate was expressed as nanomoles of glucose per minutes per milligram of cell protein (nmol/min/mg). Protein concentration was determined by a standard Bicinchoninic acid (BCA) protein assay. Nonspecific glucose uptake was measured by adding 2 μCi of L-[^14C]-glucose and subtracting from each determination to obtain specific glucose uptake.

Caco-2 cell monolayer [2] = assay: Arginine absorption assay (transport across Caco-2 cell monolayer); parameters: key to * (regulatory effect on arginine transport): ↑: the arrows that point up represent the enhancing effect on the arginine transport; settings: for Regulatory effects on the arginine transport across the Caco2 cell monolayer: Table 3 summary; for Transport rate (arginine): 10 mM L-arginine apical
Procedure: as §1, §2
(§4) In measuring transport of arginine across the Caco-2 cell monolayer, both sides of the transwells were washed with arginine incubation buffer consisting of: 137 mM NaCl, 10 mM Hepes, 0.3 mM NaH2PO4, 0.3 mM K2HPO4, 5.4 mM KCl, 2.8 mM CaCl2, 1 mM MgSO4, 10 mM glucose, adjusted to pH 7.4. Then, the cell layer was preincubated in the incubation buffer at 37° C. for 1 h. The volume of incubation buffer was 0.2 mL and 0.9 mL in the apical and basolateral chambers, respectively. The cells were replaced with fresh incubation medium in both chambers prior to the transport experiment. The transport experiment was initiated by replacing the incubation solution on the apical side with solution containing 10 mM of L-arginine in which 0.125 μCi/mL of L-[^3H]-arginine was included. At designated time intervals, 10 μL-solution samples were removed from the basolateral side and radioactivity of each sample was counted using a microplate liquid scintillation counter (TopCount, Packard NXT). During the experiment, when a 10 μL-solution sample was removed from the basolateral side every time, 10 μL buffer was supplemented to keep the volume constant. The uptake of [^3H]-mannitol was used to correct for nonspecific transport of molecules across the monolayer membrane. Results were expressed as the nanomoles of arginine transport across the Caco-2 cell monolayers with respect to time in minutes (nmol/min).

Caco-2 cell monolayer [3] = assay: Tryptophan absorption assay (transport across Caco-2 cell monolayer); parameters: key to * (regulatory effect on tryptophan transport): ↑: the arrows that point up represent the enhancing effect on the tryptophan transport; settings: for Regulatory effects on the tryptophan transport across the Caco2 cell monolayer: Table 4 summary
Procedure: as §1, §2, §4
The experimental procedures similar to those in Example 2 were used for measuring the uptake of tryptophan molecules across the Caco-2 membrane, except using a tryptophan incubation buffer consisting of 137 mM choline chloride, 10 mM Hepes, 0.6 mM KH2PO4, 5.4 mM KCl, 2.8 mM CaCl2, 1 mM MgSO4, and 10 mM glucose, and having its pH adjusted to 7.4. Results were expressed as the nanomoles of tryptophan transport across the Caco-2 cell monolayers with respect to time in minutes (nmol/min).

Caco2 cells [4] = assay: Folate uptake assay; parameters: key to * (regulatory effect on folate uptake): ↑: the arrows that point up represent the enhancing effect on folate uptake; settings: for * (regulatory effect on folate uptake) / Percentage (folate uptake vs own control) / Uptake rate (folate): compound 0.1 μM; for Uptake rate (folate): 2 days, 5 μM folate, pH 6.0
Procedure: as §1, §2, §3
The Caco2 cells were subjected to folate uptake test in a manner similar to that described in the glucose uptake assay in Example 1 above. […]

SMILES | Regulatory effects on the glucose uptake of the Caco2 cells (Caco2 cells [1]) | * (regulatory effect on glucose uptake) (Caco2 cells [1]; compound 0.01 μM) | Percentage (glucose uptake, control = 100) (Caco2 cells [1]; compound 0.01 μM) | Uptake rate (glucose) (Caco2 cells [1]; compound 0.01 μM) | * (regulatory effect on glucose uptake) (Caco2 cells [1]; compound 0.1 μM) | Percentage (glucose uptake, control = 100) (Caco2 cells [1]; compound 0.1 μM) | Uptake rate (glucose) (Caco2 cells [1]; compound 0.1 μM) | Percentage (glucose uptake, control = 100) (Caco2 cells [1]; compound 1 μM) | Uptake rate (glucose) (Caco2 cells [1]; compound 1 μM) | Regulatory effects on the arginine transport across the Caco2 cell monolayer (Caco-2 cell monolayer [2]) | * (regulatory effect on arginine transport) (Caco-2 cell monolayer [2]; compound 0.01 μM) | Percentage (arginine transport, control = 100) (Caco-2 cell monolayer [2]; compound 0.01 μM) | Transport rate (arginine) (Caco-2 cell monolayer [2]; compound 0.01 μM) | * (regulatory effect on arginine transport) (Caco-2 cell monolayer [2]; compound 0.1 μM) | Percentage (arginine transport, control = 100) (Caco-2 cell monolayer [2]; compound 0.1 μM) | Transport rate (arginine) (Caco-2 cell monolayer [2]; compound 0.1 μM) | Regulatory effects on the tryptophan transport across the Caco2 cell monolayer (Caco-2 cell monolayer [3]) | * (regulatory effect on tryptophan transport) (Caco-2 cell monolayer [3]; compound 0.01 μM) | Percentage (tryptophan transport, control = 100) (Caco-2 cell monolayer [3]; compound 0.01 μM) | Transport rate (tryptophan) (Caco-2 cell monolayer [3]; compound 0.01 μM) | other results
CC(C)(O)C1CC[C@](C)(C2[C@@H](O)C[C@@]3(C)C4C[C@H](OC5OC(CO)C(O)C(O)C5O)C5C(C)(C)[C@@H](O)CCC56CC46CC[C@]23C)O1 (stereo partly drawn) [AA, cycloastragenol 6-O-β-D-gluco-pyranose] | had regulatory effects on the glucose uptake | ↑ | 179.69% | 11.450 ± 3.2760 nmol/mg/min | ↑ | 146.67% | 9.3460 ± 2.3210 nmol/mg/min | 145.68% | 9.2830 ± 2.1150 nmol/mg/min | had regulatory effects on the arginine transport | ↑ | 199.66% | 21.3347 ± 1.7800 nmol/min | ↑ | 170.48% | 18.2169 ± 1.8700 nmol/min | had regulatory effects on the tryptophan transport | ↑ | 133.08% | 11.900 ± 0.6231 nmol/min | * (regulatory effect on glucose uptake) (Caco2 cells [1]; compound 1 μM): ↑; * (regulatory effect on arginine transport) (Caco-2 cell monolayer [2]; compound 1 μM): ↑; Percentage (arginine transport, control = 100) (Caco-2 cell monolayer [2]; compound 1 μM): 162.06%; Transport rate (arginine) (Caco-2 cell monolayer [2]; compound 1 μM): 17.3164 ± 1.6150 nmol/min; Arginine transport rate (Caco-2 cell monolayer [2]; concentration from 0.01 μM to 1 μM): increased; * (regulatory effect on tryptophan transport) (Caco-2 cell monolayer [3]; compound 0.1 μM): ↑; Percentage (tryptophan transport, control = 100) (Caco-2 cell monolayer [3]; compound 0.1 μM): 156.56%; Transport rate (tryptophan) (Caco-2 cell monolayer [3]; compound 0.1 μM): 14.000 ± 0.6445 nmol/min; * (regulatory effect on tryptophan transport) (Caco-2 cell monolayer [3]; compound 1 μM): ↑; Percentage (tryptophan transport, control = 100) (Caco-2 cell monolayer [3]; compound 1 μM): 135.32%; Transport rate (tryptophan) (Caco-2 cell monolayer [3]; compound 1 μM): 12.100 ± 0.5197 nmol/min; Tryptophan transport rate (Caco-2 cell monolayer [3]; concentration from 0.01 μM to 1 mM): increased; * (regulatory effect on folate uptake) (Caco2 cells [4]): ↑; Percentage (folate uptake vs own control) (Caco2 cells [4]): 158.52%; Uptake rate (folate) (Caco2 cells [4]): 84.030 ± 4.9410 pmol/mg/min
CC(=O)OC1C(O)COC(OC2CCC34CC35CCC3(C)C(C6(C)CCC(C(C)(C)O)O6)C(O)CC3(C)C5CC(OC3OC(CO)C(O)C(O)C3O)C4C2(C)C)C1OC(C)=O (stereo not shown) [AS1, astragaloside I] | had regulatory effects on the glucose uptake | ↑ | 146.75% | 9.3510 ± 1.1370 nmol/mg/min | ↑ | 122.82% | 7.8260 ± 1.7510 nmol/mg/min | 98.52% | 6.2780 ± 1.9930 nmol/mg/min | had regulatory effects on the arginine transport | ↑ | 151.91% | 16.2324 ± 0.7215 nmol/min | ↑ | 147.21% | 15.7300 ± 1.1250 nmol/min | had regulatory effects on the tryptophan transport | ↑ | 248.49% | 22.220 ± 0.8695 nmol/min | * (regulatory effect on arginine transport) (Caco-2 cell monolayer [2]; compound 0.001 μM): ↑; Percentage (arginine transport, control = 100) (Caco-2 cell monolayer [2]; compound 0.001 μM): 133.37%; Transport rate (arginine) (Caco-2 cell monolayer [2]; compound 0.001 μM): 14.2554 ± 0.5851 nmol/min; Arginine transport rate (Caco-2 cell monolayer [2]; concentration from 0.001 μM to 0.1 μM): increased; * (regulatory effect on tryptophan transport) (Caco-2 cell monolayer [3]; compound 0.1 μM): ↑; Percentage (tryptophan transport, control = 100) (Caco-2 cell monolayer [3]; compound 0.1 μM): 258.67%; Transport rate (tryptophan) (Caco-2 cell monolayer [3]; compound 0.1 μM): 23.130 ± 1.3120 nmol/min; * (regulatory effect on tryptophan transport) (Caco-2 cell monolayer [3]; compound 1 μM): ↑; Percentage (tryptophan transport, control = 100) (Caco-2 cell monolayer [3]; compound 1 μM): 178.93%; Transport rate (tryptophan) (Caco-2 cell monolayer [3]; compound 1 μM): 16.000 ± 1.3190 nmol/min; Tryptophan transport rate (Caco-2 cell monolayer [3]; concentration from 0.01 μM to 0.1 mM): increased; Folate uptake versus control group (Caco2 cells [4]; 0.1 μM, FIG. 4): increased folate uptake; * (regulatory effect on folate uptake) (Caco2 cells [4]): ↑; Percentage (folate uptake vs own control) (Caco2 cells [4]): 150.00%; Uptake rate (folate) (Caco2 cells [4]): 79.710 ± 3.0410 pmol/mg/min
